Article PMC5086648, “Structural and Functional Elucidation of Peptide Ts11 Shows Evidence of a Novel Subfamily of Scorpion Venom Toxins” (Toxins, 2016)
Bridge positions count the residues as written; N and C are the ends. Peptide text beside a SMILES is read from it.

Tests used:
Kv channels = assay: TEVC electrophysiology, Kv channel panel in Xenopus oocytes; format: cell-based; conditions: discussion, Kv channels overall
From the text: (§1) For the expression of the voltage gated potassium channels (rKV1.1, rKV1.2, hKV1.3, rKV1.4, rKV1.5, rKV1.6, Shaker IR, rKV2.1, hKV3.1, rKV4.2, hERG, KV10.1) and the voltage gated sodium channels (rNaV1.1, rNaV1.4, hNaV1.5, mNaV1.6 and DmNav1) in Xenopus oocytes, the linearized plasmids were transcribed using the T7 or SP6 mMESSAGE-mMACHINE transcription kit (Ambion, Waltham, MA, USA). The harvesting of stage V–VI oocytes from anaesthetized female X. laevis frog has been previously described. Oocytes were injected with 30–50 nL of cRNA at a concentration of 1 ng/nL using a micro-injector (Drummond Scientfic, Broomall, PA, USA). The oocytes were incubated in a solution containing (in mM): NaCl, 96; KCl, 2; CaCl2, 1.8; MgCl2, 2 and HEPES, 5 (pH 7.4), supplemented with 50 mg/L gentamycin sulfate.
(§2) Two-electrode voltage-clamp recordings were performed at room temperature (18–22 °C) using a Geneclamp 500 amplifier (Molecular Devices, Silicon Valley, CA, USA) controlled by a pClamp data acquisition system (Axon Instruments, Union City, CA, USA). Whole cell currents from oocytes were recorded 1–10 days after injection. Bath solution composition was ND96 (in mM): NaCl, 96; KCl, 2; CaCl2, 1.8; MgCl2, 2 and HEPES, 5 (pH 7.4) (in mM): NaCl, 2; KCl, 96; CaCl2, 1.8; MgCl2, 2 and HEPES, 5 (pH 7.4). […]

Nav1.5 (hNaV1.5) = assay: TEVC electrophysiology, Nav1.5 in Xenopus oocytes; format: cell-based, human; conditions: 1 μM, two-electrode voltage-clamp, 100 ms depolarization to 0 mV from −90 mV, number of cells ≥ 3
From the text: as §1, §2

Kv1.3 (hKV1.3) = target: T1, Kv1.3 (hKV1.3) (Homo sapiens, UniProt P22001); assay: TEVC electrophysiology, Kv1.3 in Xenopus oocytes; format: cell-based
T1 construct: expressed in transfected cells; host or cells: Xenopus laevis oocytes injected with cRNA
T1 sequence (P22001 whole entry): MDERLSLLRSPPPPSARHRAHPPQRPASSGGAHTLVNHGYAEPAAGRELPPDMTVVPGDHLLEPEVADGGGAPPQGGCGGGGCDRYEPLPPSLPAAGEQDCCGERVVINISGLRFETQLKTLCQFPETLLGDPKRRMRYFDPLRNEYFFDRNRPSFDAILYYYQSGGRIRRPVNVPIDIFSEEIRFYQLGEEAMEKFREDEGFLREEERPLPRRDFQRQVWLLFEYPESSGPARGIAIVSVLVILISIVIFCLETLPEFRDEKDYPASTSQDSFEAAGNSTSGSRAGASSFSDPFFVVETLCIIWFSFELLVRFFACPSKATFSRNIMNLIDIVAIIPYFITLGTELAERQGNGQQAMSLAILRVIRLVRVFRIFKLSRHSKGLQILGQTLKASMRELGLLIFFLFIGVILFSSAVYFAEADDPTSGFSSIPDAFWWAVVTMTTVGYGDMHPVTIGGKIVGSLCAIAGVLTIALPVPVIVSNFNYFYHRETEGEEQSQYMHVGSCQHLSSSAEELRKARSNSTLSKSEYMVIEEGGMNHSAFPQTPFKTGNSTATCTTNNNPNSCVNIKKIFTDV
From the text: as §1
Two-electrode voltage-clamp recordings were performed at room temperature (18–22 °C) using a Geneclamp 500 amplifier (Molecular Devices, Silicon Valley, CA, USA) controlled by a pClamp data acquisition system (Axon Instruments, Union City, CA, USA). Whole cell currents from oocytes were recorded 1–10 days after injection. Bath solution composition was ND96 (in mM): NaCl, 96; KCl, 2; CaCl2, 1.8; MgCl2, 2 and HEPES, 5 (pH 7.4) (in mM): NaCl, 2; KCl, 96; CaCl2, 1.8; MgCl2, 2 and HEPES, 5 (pH 7.4). Voltage and current electrodes were filled with KCl 3 M. Resistances of both electrodes were kept between […]. The elicited currents were sampled at 1 kHz and filtered at 0.5 kHz (for potassium currents) or sampled at 20 kHz and filtered at 2 kHz (for sodium currents) using a four-pole low-pass Bessel filter. Leak subtraction was performed using a -P/4 protocol.
The KV1.1–KV1.6, KV2.1, KV3.1 and KV4.2 and Shaker IR currents were evoked by 250 ms depolarizations to 0 mV followed by a 250 ms pulse to −50 mV, from a holding potential of −90 mV. Current traces of hERG channels were elicited by applying a pulse from −90 mV to +40 mV for 2.5 s followed by a step to −120 mV for 2.5 s. The Kv 10.1 currents were evoked by 1 s depolarization to 0 mV, from a holding potential of −90 mV. Sodium current traces were evoked, from a holding potential of −90 mV, by 100 ms depolarization to 0 mV. In order to investigate the current-voltage relationship, current traces were evoked by 10 mV depolarization steps from a holding potential of −90 mV.
To assess the concentration-response relationship of Ts11 on Kv1.3, data were fitted with the Hill equation: y = 100/[1 + (IC50/[toxin])^h], where y is the amplitude of the toxin-induced effect, IC50 is the toxin concentration at half maximal efficacy, [toxin] is the toxin concentration and h is the Hill coefficient (Hill coefficient: 0.8). Current-voltage relationship was determined by 100 ms step depolarization between −90 and +70 mV, using 10 mV increments. All data represent at least 3 independent experiments (n = 3) and are presented as mean ± standard error.

DmNav1 = assay: TEVC electrophysiology, DmNav1 in Xenopus oocytes; format: cell-based, insect; conditions: 1 μM, two-electrode voltage-clamp, 100 ms depolarization to 0 mV from −90 mV, number of cells ≥ 3
From the text: as §1, §2

Shaker IR = assay: TEVC electrophysiology, Shaker IR in Xenopus oocytes; format: cell-based; conditions: 3 μM, native toxin, two-electrode voltage-clamp, ND96 pH 7.4, 18–22 °C, 250 ms depolarizations to 0 mV from −90 mV, n ≥ 3
From the text: as §1, §2

Kv10.1 = assay: TEVC electrophysiology, Kv10.1 in Xenopus oocytes; format: cell-based; conditions: 3 μM, native toxin, two-electrode voltage-clamp, ND96 pH 7.4, 18–22 °C, 1 s depolarization to 0 mV from −90 mV, n ≥ 3
From the text: as §1, §2

Nav1.6 (mNaV1.6) = assay: TEVC electrophysiology, Nav1.6 in Xenopus oocytes; format: cell-based, mouse; conditions: 1 μM, two-electrode voltage-clamp, 100 ms depolarization to 0 mV from −90 mV, number of cells ≥ 3
From the text: as §1, §2

hERG = assay: TEVC electrophysiology, hERG in Xenopus oocytes; format: cell-based
From the text: as §1, §2

Kv4.2 (rKV4.2) = assay: TEVC electrophysiology, Kv4.2 in Xenopus oocytes; format: cell-based, rat
From the text: as §1, §2

Nav1.1 (rNaV1.1) = assay: TEVC electrophysiology, Nav1.1 in Xenopus oocytes; format: cell-based, rat; conditions: 1 μM, two-electrode voltage-clamp, 100 ms depolarization to 0 mV from −90 mV, number of cells ≥ 3
From the text: as §1, §2

Nav channels = assay: TEVC electrophysiology, Nav channel panel in Xenopus oocytes; format: cell-based; conditions: discussion; tested at 1 μM
From the text: as §1, §2

Kv1.2 (rKV1.2) = assay: TEVC electrophysiology, Kv1.2 in Xenopus oocytes; format: cell-based, rat
From the text: as §1, §2

Nav1.4 (rNaV1.4) = assay: TEVC electrophysiology, Nav1.4 in Xenopus oocytes; format: cell-based, rat; conditions: 1 μM, two-electrode voltage-clamp, 100 ms depolarization to 0 mV from −90 mV, number of cells ≥ 3
From the text: as §1, §2

[1] = 3 μM, native toxin, two-electrode voltage-clamp, Xenopus oocytes, ND96 pH 7.4, 18–22 °C, 250 ms depolarizations to 0 mV from −90 mV, n ≥ 3
[2] = 5 μM, compared with 3 μM, data not shown

CC(C)C[C@@H]1NC(=O)CNC(=O)[C@@H](NC(=O)[C@H](CCCCN)NC(=O)[C@@H]2CCCN2C(=O)[C@@H](N)CCCCN)CSSC[C@@H]2NC(=O)[C@@H]3CSSC[C@@H]4NC(=O)[C@H](CCCCN)NC(=O)CNC(=O)[C@H](CO)NC(=O)[C@H](CO)NC(=O)[C@H](CSSC[C@H](NC(=O)[C@H](C)NC(=O)CNC(=O)[C@H](CC(N)=O)NC(=O)[C@H](C(C)C)NC4=O)C(=O)N[C@@H](CC(=O)O)C(=O)N[C@H](C(=O)N[C@@H](CO)C(=O)O)CSSC[C@H](NC1=O)C(=O)N[C@@H](CCCNC(=N)N)C(=O)N[C@@H](Cc1ccc(O)cc1)C(=O)N[C@@H](CCCNC(=N)N)C(=O)N3)NC(=O)CNC(=O)CNC(=O)[C@H](CO)NC2=O [Ts11] (H-KPKCGLCRYRCCSGGCSSGKCVNGACDCS-OH; disulfide 4-12, 7-28, 11-21, 16-26; N-terminus and C-terminus assumed)
effect on kinetics of Kv channel gating (Kv channels): without altering the kinetics of channel gating | potency as Kv channel blocker (in words) (Kv channels): not a potent blocker of Kv channels | activity on Nav1.5 (Nav1.5 (hNaV1.5)): inactive | blocking effect on Kv1.3 (Kv1.3 (hKV1.3); [1]): 27% | alteration of channel activation properties (Kv1.3) (Kv1.3 (hKV1.3); 5 μM, V1/2 with toxin vs control): No significant alteration of properties of channel activation | Hill coefficient, Kv1.3 (Kv1.3 (hKV1.3); concentration-response fit, Hill equation, n ≥ 3): 0.8 | IC50 (Kv1.3 (hKV1.3); concentration-response, Hill equation fit, two-electrode voltage-clamp, Xenopus oocytes, pH 7.4, 18–22 °C, mean ± standard error, n ≥ 3, read-out: IC50, inhibition of Kv1.3 currents): 17.1 ± 3.3 µM | V1/2 of Kv1.3 activation (Kv1.3 (hKV1.3); toxin condition, 5 μM (Figure 3B), normalized peak Itail, control 17.3 ± 0.6 mV, n ≥ 3, mean ± standard error): 17.6 ± 0.7 mV | activity on insect channel DmNav1 (DmNav1): inactive | blocking effect on Shaker IR (Shaker IR): 10% | blocking effect on Kv10.1 (Kv10.1): 15% | activity on Nav1.6 (Nav1.6 (mNaV1.6)): inactive | blocking effect on hERG (hERG; 3 μM, native toxin, two-electrode voltage-clamp, Xenopus oocytes, pH 7.4, 18–22 °C, pulse −90 mV to +40 mV for 2.5 s, step to −120 mV for 2.5 s, n ≥ 3): 12% | increase in blockage at higher concentration, hERG (hERG; 10 μM, compared with 3 μM, data not shown): no significant increase in blockage | blocking effect on Kv4.2 (Kv4.2 (rKV4.2); [1]): 25% | increase in blockage at higher concentration, Kv4.2 (Kv4.2 (rKV4.2); [2]): no significant increase in blockage | activity on Nav1.1 (Nav1.1 (rNaV1.1)): inactive | activity on Nav channels overall (in words) (Nav channels): does not target Nav channels | blocking effect on Kv1.2 (Kv1.2 (rKV1.2); [1]): 25% | increase in blockage at higher concentration, Kv1.2 (Kv1.2 (rKV1.2); [2]): no significant increase in blockage | activity on Nav1.4 (Nav1.4 (rNaV1.4)): inactive
